The values that follow come from US11780843B2, “Compounds active towards nuclear receptors” (NUEVOLUTION A/S, priority 2020, dated 2023).

Like-named read-outs stand apart in the source and are kept apart here.

In assay [1] the target is T1, RORγ ligand-binding domain (Homo sapiens, UniProt P51449).
T1 construct: Gal4 (galactose-responsive transcription factor); expressed in transfected cells; host or cells: HEK293, transient co-transfection
T1 sequence (P51449 269-508 limits assumed): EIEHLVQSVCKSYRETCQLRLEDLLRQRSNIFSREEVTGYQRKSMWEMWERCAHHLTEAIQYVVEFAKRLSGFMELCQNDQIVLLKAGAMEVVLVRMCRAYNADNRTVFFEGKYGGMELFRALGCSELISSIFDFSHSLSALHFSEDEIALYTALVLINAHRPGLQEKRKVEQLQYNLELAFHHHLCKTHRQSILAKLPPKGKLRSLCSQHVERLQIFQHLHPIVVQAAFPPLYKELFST
The experiment in a line: RORγ Reporter Assay (Gal4). The class given is cell-based. In a few lines: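 HEK293 cells transiently co-transfected with Gal4–RORγ LBD fusion and UAS-luciferase reporter, plated 2 h, then exposed to compound (0.1% DMSO final) for 24 h at 37 °C. Luminescence read; percent reduction vs vehicle fitted to dose-response curves.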
(In general: In a reporter assay the amount or activity of a reporter protein is the signal.)

Assay [2] deals with IL-17A secretion in activated PBMCs. The experiment in a line: IL-17A secretion in activated PBMCs. The class given is cell-based. To be noted: human PBMCs stimulated with CD3/CD28 Dynabeads for 48 h, absolute IC50. An excerpt: Heparin-treated whole blood from healthy human volunteers was supplied from Hospital de Sant Pau (Barcelona) under the approval of the local ethical review board for human studies (Hospital de Sant Pau, Barcelona, Spain). Human peripheral blood mononuclear cells (PBMCs) were isolated from healthy human volunteers by density gradient centrifugation using the Ficoll-Paque (GE Healthcare). PBMCs were suspended in cell culture medium which consisted on RPMI 1640 medium (Sigma-Aldrich) containing 10% heat inactivated fetal bovine serum (Sigma-Aldrich), 2 mM L-Glutamine (Gibco), 20 mM Hepes (Gibco) and 100 U/mL penicillin (Sigma-Aldrich). Cells were seeded in 384-well plate (DiscoverX), at 40,000 cells per well and cultured 2 h at 37° C. and 5% CO2.
Dose-response curves with compounds were prepared using a 5-fold serial dilution (10 concentrations) in 100% DMSO and further diluted 100-fold in culture medium. Compound solutions (5 μL) were added to the plate containing cells (final DMSO concentration of 0.1%) and incubated for 30 min. Then, cells were stimulated with CD3/CD28 Dynabeads (ThermoFisher, at a bead-to-cell ratio of 1:1) for 48 h at 37° C. and 5% CO2.
IL-17A levels in supernatant were determined by immunoassay using hIL17A QBeads (Intellicyt) and by fluorescence analysis in iQue flow cytometer following the manufacturer's instructions. Inhibition of IL-17A secretion was calculated using the following formula: inhibition=100*[1−[(x−mean basal condition)/(mean top condition—mean basal condition)]]. Activated DMSO-treated cells were used as top condition and activated GNE09461 (10 μM)-treated cells as basal condition.

In assay [3] the test system is plasma IL-17A. The experiment in a line: In vivo IL-17A induction in anti-CD3 model in mice. To be noted: oral gavage twice daily day 0 to day 3, anti-CD3e induced C57BL/6JRj mice. Here is the method: Male C57BL/6JRj mice (7 week old) were purchased from Janvier Labs and housed at the animal facilities of Almirall throughout the study. Animals were allowed to condition for 5 days in their new environment at 22° C.±2° C., 55%±10% relative humidity and 12 h:12 h light:dark cycles. Animals were housed in polycarbonate cages, with free access to water and non-purified stock diet (2014 Teklad Global 14% Protein Rodent Maintenance Diet, Envigo) during the full course of the studies. Care of animals was undertaken in compliance with the European Committee Directive 2010/63/EU, and the Catalan and Spanish law. […]
Plasma levels of IL-17A were measured by ELISA (R&D Systems) according to the manufacturer's instruction. Results were calculated as the percentage of reduction of plasma IL-17A versus the difference between non-induced and anti-CD3e induced groups through the formula: inhibition=100*[1−[(x−mean non-induced)/(mean control vehicle−mean non-induced)]]. The IL-17A inhibition for each treatment can be expressed as the mean for each treatment group±S.E.M. Statistical analysis of data were conducted with one-way ANOVA followed by Dunnett's multiple comparisons test when appropriate. […]

Assay [4] has as its system Th17 cells. The assay is described as follows: Th17 Assay (IL-17 levels in supernatants of differentiated Th17 cells). It counts as cell-based. To be noted: Homo sapiens, 168 h; naive CD4+ T cells differentiated to Th17 for seven days, IL-17 by ELISA. Here is the method: Human peripheral blood mononuclear cells (PBMCs) were isolated from buffy coats of healthy human volunteers using the Ficoll paque PLUS kit (GE Healthcare, cat no 17-1440-02), as instructed by the manufacturer. Naive CD4+ T cells were isolated with Naive CD4+ T cell kit, human (Milteny Biotec, cat no 130-094-131). The following modifications were made to the manufacturer's protocol: 1) Incubation with Biotin-Antibody Cocktail and Anti-Biotin MicroBeads was prolonged to 30 minutes, and 2) Cells were washed with 40 mL of Miltenyi buffer. Differentiation of Th17 cells in anti-CD3 (BD Pharmingen, 5 μg/ml) coated 96-well plates (400,000 cells/well, 160 μl RPMI 1640+10% Fetal Bovine Serum) containing 5 μg/ml anti-CD28 (BD Pharmingen), 10 ng/ml IL-2 (R&D Systems), 2.5 ng/ml TGFβ-1 (R&D Systems), 20 ng/ml IL-10 (R&D Systems), 20 ng/ml IL-6 (R&D Systems), 30 ng/ml IL-23 (R&D Systems), 2.5 μg/ml anti-IL-4 (R&D Systems) and 1 μg/ml anti-IFNγ (R&D Systems) and with test compound during the entire differentiation (or vehicle, 0.1% DMSO for control). Test compounds were tested in triplicates, diluted 1000-fold in medium (final DMSO concentration is 0.1%). […] IL-17 levels in supernatants were measured with ELISA (R&D Systems).

Setting [5] is: HEK293 cells, luciferase reporter, 24 h incubation, absolute IC50, read-out: IC50.

Regarding `NC(=O)CN1CC[C@](O)(Cn2ccc3c(N(Cc4ccc(C(F)(F)F)cc4)C4CC4)ncnc32)[C@@H](O)C1` (single isomer, unassigned) [Example L5-1-1-1], the IC50 (usually the midpoint of a concentration-inhibition curve) in assay [1] (setting [5]) was 2.2 nM; in assay [1] (stated as a bound only (Tables 5 a, 6, 7), read-out: Gal4 assay IC50), less than 100 nM; in assay [2] (Homo sapiens, PBMC, 48 h) it was 3.6 nM. For the same compound, the “Inhibition of IL-17A (%) at 3 mg/kg” value in assay [3] is 94%.
In the case of `NC(=O)CN1CCC(Cn2ccc3c(N4CCOCC4c4ccc(C(F)(F)F)cc4)ncnc32)CC1` (single isomer, unassigned) [Example P6-02-2], the figures for the IC50 in assay [1] (setting [5]) and in assay [4] were 30 nM and 124 nM, respectively.
In the case of `NC(=O)CN1CC[C@@H](Cn2cc(F)c3c(N(Cc4ccc(C(F)(F)F)cc4)C4CC4)ncnc32)[C@H](O)C1` (single isomer, unassigned) [Example P6-14-2], the IC50 in assay [1] (setting [5]) was 1 nM; in assay [2], 1.7 nM.
In the case of `NC(=O)CN1CC[C@@H](Cn2ccc3c(N(Cc4ccc(C(F)(F)F)cn4)C4CC4)ncnc32)[C@H](O)C1` (single isomer, unassigned) [Example P6-23-1], the IC50 in assay [1] (setting [5]) came to 9.9 nM; in assay [2] (Homo sapiens, PBMC, 48 h) it was 59 nM.
Regarding `NC(=O)CN1CC[C@@H](Cn2ccc3c(N(Cc4ccc(C(F)(F)F)cn4)C4CC4)ncnc32)[C@H](O)C1` (single isomer, unassigned) [Example P6-23-2], the IC50 in assay [1] (setting [5]) was 15 nM; in assay [2] it was 98 nM.
As for `CCN(Cc1ccc(C(F)(F)F)cc1)c1ncnc2c1ccn2C[C@@H]1CCN(CC(N)=O)C[C@H]1O` (single isomer, unassigned) [Example P6-24-1], the IC50 in assay [1] (setting [5]) is 4.9 nM; in assay [2], 9.9 nM.
Regarding `CCN(Cc1ccc(C(F)(F)F)cc1)c1ncnc2c1ccn2C[C@@H]1CCN(CC(N)=O)C[C@H]1O` (single isomer, unassigned) [Example P6-24-2], the IC50 in assay [1] (setting [5]) was found to be 9.1 nM; in assay [2], 170 nM.
On to `CC(C)N(Cc1ccc(C(F)(F)F)cc1)c1ncnc2c1ccn2C[C@@H]1CCN(CC(N)=O)C[C@H]1O` (single isomer, unassigned) [Example P6-25-1], for which the IC50 in assay [1] (setting [5]) amounted to 12 nM; in assay [2] (Homo sapiens, PBMC, 48 h) it was 110 nM.
With `CC(C)N(Cc1ccc(C(F)(F)F)cc1)c1ncnc2c1ccn2C[C@@H]1CCN(CC(N)=O)C[C@H]1O` (single isomer, unassigned) [Example P6-25-2], the IC50 in assay [1] (setting [5]) was determined as 30 nM; in assay [2], 130 nM.
For the compound `NC(=O)CN1CC[C@@H](Cn2cnc3c(N(Cc4ccc(C(F)(F)F)cc4)C4CC4)ncnc32)[C@H](O)C1` (single isomer, unassigned) [Example P6-26-2], the IC50 in assay [1] (setting [5]) worked out at 5 nM; in assay [2] (Homo sapiens, PBMC, 48 h), 65 nM.
Consider `NC(=O)CN1CC[C@](O)(Cn2ccc3c(N(Cc4ccc(-n5cccn5)cc4)C4CC4)ncnc32)[C@@H](O)C1` (single isomer, unassigned) [Example R5-2-1], for which the IC50 is 4.9 nM in assay [1] (setting [5]) and 29 nM in assay [2].
With `NC(=O)CN1CC[C@](O)(Cn2ccc3c(N(Cc4ccc(-n5cccn5)cc4)C4CC4)ncnc32)[C@@H](O)C1` (single isomer, unassigned) [Example R5-2-2], the IC50 in assay [1] (setting [5]) turned out to be 6.5 nM; in assay [2], 7.4 nM.
In the case of `NC(=O)CN1CCC(O)(Cn2cc(F)c3c(N(Cc4ccc(C(F)(F)F)cc4)C4CC4)ncnc32)CC1` [Example 3P6-1, 2-(4-((4-(Cyclopropyl(4-(trifluoromethyl)benzyl)amino)-5-fluoro-7H-pyrrolo[2,3-d]pyrimidin-7-yl)methyl)-4-hydroxypiperidin-1-yl)acetamide], the IC50 in assay [1] (setting [5]) was 6.9 nM; in assay [2] (Homo sapiens, PBMC, 48 h) it was 21 nM.
For `NC(=O)CN1CCC(O)(Cn2ccc3c(N(Cc4ccc(C(F)(F)F)cc4)C4CC4)ncnc32)CC1` [Example 3P6-2, 2-(4-((4-(cyclopropyl(4-(trifluoromethyl)benzyl)amino)-7H-pyrrolo-[2,3-d]pyrimidin-7-yl)methyl)-4-hydroxypiperidin-1-yl)acetamide], in that order: 4.2 nM and 2.2 nM.
Take `NC(=O)CN1CCC(Cn2cc(F)c3c(N(Cc4ccc(C(F)(F)F)cc4)C4CC4)ncnc32)CC1` [Example P6-05, 2-(4-((4-(cyclopropyl(4-(trifluoromethyl)benzyl)amino)-5-fluoro-7H-pyrrolo[2,3-d]pyrimidin-7-yl)methyl)piperidin-1-yl)acetamide]: the IC50 in assay [1] (setting [5]) turned out to be 62 nM; in assay [2] (Homo sapiens, PBMC, 48 h), 20 nM.
In the same order, the values of `NC(=O)CN1CCC(Cn2cnc3c(N(Cc4ccc(C(F)(F)F)cc4)C4CC4)ncnc32)CC1` [Example P6-06, 2-(4-((6-(cyclopropyl(4-(trifluoromethyl)benzyl)amino)-9H-purin-9-yl)methyl)piperidin-1-yl)acetamide] are 85 nM and 48 nM.
In the case of `N#CC1(Cn2cc(F)c3c(N(Cc4ccc(C(F)(F)F)cc4)C4CC4)ncnc32)CCN(CC(N)=O)CC1` [Example P6-11, 2-(4-cyano-4-((4-(cyclopropyl(4-(trifluoromethyl)benzyl)amino)-5-fluoro-7H-pyrrolo[2,3-d]pyrimidin-7-yl)methyl)piperidin-1-yl)acetamide], the IC50 in assay [1] (setting [5]) was found to be 16 nM; in assay [2] (Homo sapiens, PBMC, 48 h) it was 23 nM.
